Experimental data from patent US12350270B2, “Antimalarial agents” (Merck Sharp & Dohme LLC, priority 2019, dated 2025).
pEC50: −log10 of the molar value.

Each compound was assayed on parasites (ring stage, in human red blood cell culture) (assay: Parasite LDH growth assay (antiparasite potency, Parasite Assay)). Conditions: 0.7% rings, 2% haematocrit, 72 hours at 37° C., LDH readout of parasite growth.
Format: cell-based, Plasmodium falciparum
Outline: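 Growth was read by an LDH assay after a freeze–thaw cycle (−80 °C overnight, 4 h thaw at RT). Before that, parasites grew with compound for 72 h at 37 °C under gassed, humidified conditions. The input was a ring-stage culture adjusted to 0.7% parasitemia and 2% haematocrit in serum (5%)/albumax (0.5%)-supplemented RPMI-Hepes.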
With `CCC1(CC)CC(=O)N([C@H]2c3cc(C(=O)N[C@@H]4c5ccccc5OC(C)(C)[C@H]4O)ccc3OCC2OC)C(=N)N1` (stereo partly drawn) [Example 67A, (3R,4S)-4-(4,4-diethyl-2-imino-6-oxotetrahydropyrimidin-1(2H)-yl)-N-((3S,4R)-3-hydroxy-2,2-dimethylchroman-4-yl)-3-methoxychromane-6-carboxamide] the pEC50 was 6.77. `CCC1(CC)CC(=O)N([C@H]2c3cc(C(=O)N[C@@H]4c5ccccc5OC(C)(C)[C@H]4O)ccc3OCC2OC)C(=N)N1` (stereo partly drawn) [Example 67B, (3R,4S)-4-(4,4-diethyl-2-imino-6-oxotetrahydropyrimidin-1(2H)-yl)-N-((3S,4R)-3-hydroxy-2,2-dimethylchroman-4-yl)-3-methoxychromane-6-carboxamide] showed a pEC50 of 9.10. For `CCC1(CC)CC(=O)N([C@H]2c3cc(C(=O)N[C@@H]4c5ccccc5C[C@H]4O)ccc3OC[C@@H]2OC)C(=N)N1` [Example 69A, (3R,4S)-4-(4,4-diethyl-2-imino-6-oxotetrahydropyrimidin-1(2H)-yl)-N-((1R,2R)-2-hydroxy-2,3-dihydro-1H-inden-1-yl)-3-methoxychromane-6-carboxamide], the pEC50 was 8.59. Work on `CCC1(CC)CC(=O)N([C@@H]2CCS(=O)(=O)c3ccc(C(=O)N[C@H]4CC(C)(C)Oc5ccccc54)cc32)C(=N)N1` [Example 70A, (R)-4-(4,4-diethyl-2-imino-6-oxotetrahydropyrimidin-1(2H)-yl)-N-((S)-2,2-dimethylchroman-4-yl)thiochromane-6-carboxamide 1,1-dioxide] yielded a pEC50 of 8.03. `CCC1(CC)CC(=O)N([C@H]2c3cc(C(=O)N[C@@H]4c5ccccc5C[C@H]4O)ccc3OCC2OC)C(=N)N1` (stereo partly drawn) [Example 72A, (3R,4S)-4-(4,4-diethyl-2-imino-6-oxotetrahydropyrimidin-1(2H)-yl)-N-((lR,2R)-2-hydroxy-2,3-dihydro-1H-inden-1-yl)-3-methoxychromane-6-carboxamide] gave a pEC50 of 9.30.

Same assay, conditions: Plasmodium falciparum, Erythrocyte, 72 h, 0.7% rings, 2% haematocrit, 72 hours at 37° C., LDH readout of parasite growth
Work on `CC1(C)CC(=O)N([C@@H]2CCOc3ccc(C(=O)N[C@@H]4c5ccccc5C[C@H]4O)cc32)C(=N)N1` [Example 61A, (R)-N-((1R,2R)-2-hydroxy-2,3-dihydro-1H-inden-l-yl)-4-(2-imino-4,4-dimethyl-6-oxotetrahydropyrimidin-1(2H)-yl)chromane-6-carboxamide] yielded a pEC50 of 8.08. `CC1(C)CC(=O)N([C@@H]2CCOc3ccc(C(=O)N[C@@H]4c5ccccc5OC(C)(C)[C@H]4O)cc32)C(=N)N1` [Example 62A, (R)-N-((3S,4R)-3-hydroxy-2,2-dimethylchroman-4-yl)-4-(2-imino-4,4-dimethyl-6-oxotetrahydropyrimidin-1(2H)-yl)chromane-6-carboxamide] gave a pEC50 of 8.92. For `CCC1(CC)CC(=O)N([C@@H]2CCOc3ccc(C(=O)NC4CC(=O)Oc5ccccc54)cc32)C(=N)N1` (stereo partly drawn) [Example 63A, (4R)-4-(4,4-diethyl-2-imino-6-oxotetrahydropyrimidin-1(2H)-yl)-N-(2-oxochroman-4-yl)chromane-6-carboxamide], the pEC50 was 6.66. `CCC1(CC)CC(=O)N([C@@H]2CCOc3ccc(C(=O)N4Cc5ccccc5C4)cc32)C(=N)N1` [Example 66A, (R)-6,6-diethyl-2-imino-3-(6-(isoindoline-2-carbonyl)chroman-4-yl)tetrahydropyrimidin-4(1H)-one] showed a pEC50 of 7.12. `CCC1(CC)CC(=O)N([C@H]2c3cc(C(=O)N[C@H]4CC(C)(C)Oc5ccccc54)ccc3OCC2OC)C(=N)N1` (stereo partly drawn) [Example 68A, (3R,4S)-4-(4,4-diethyl-2-imino-6-oxotetrahydropyrimidin-1(2H)-dimethylchroman-4-yl)-3-methoxychromane-6-carboxamide] was tested, and the pEC50 was 9.00. Compound `CCC1(CC)CC(=O)N([C@@H]2CCS(=O)(=O)c3ccc(C(=O)N[C@@H]4c5ccccc5OC(C)(C)[C@H]4O)cc32)C(=N)N1` [Example 71A, (R)-4-(4,4-diethyl-2-imino-6-oxotetrahydropyrimidin-1(2H)-yl)-N-((3S,4R)-3-hydroxy-2,2-dimethylchroman-4-yl)thiochromane-6-carboxamide 1,1-dioxide] has a pEC50 of 8.46.
